Assay results published in paper PMC12948223, “HSP70 Interactome‐Mediated Proteolysis Targeting Chimera (HSP70‐PROTAC) for Ferroptosis‐Driven Cancer Treatment” (Advanced Science, 2025).

What was measured:
[1] = Pharmacokinetic study in ICR mice; format: in vivo; conditions: mouse; male ICR mice, IP, 30 mg/kg, plasma
Procedure: To evaluate the in vivo pharmacokinetic (PK) profile of the GDAz‐3 and explore its therapeutic potential, a single intraperitoneal (IP) injection (30 mg kg^−1) was conducted in male ICR mice. Plasma samples were collected at predetermined time points and analyzed using LC‐MS/MS.
The tested compound GDAz‐3 was IP administered to ICR mice (male, n = 3 per time‐point). Blood samples were collected at 0.0833, 0.25, 0.5, 1, 2, 4, 8, and 24 h after IP administration (30 mg kg^−1) and then centrifuged at 6800 g for 6 min at 4 °C to obtain plasma, which were stored at −80 °C until analysis The compound concentrations in plasma were determined by liquid chromatography‐tandem mass spectrometry (API5000 LC‐MS/MS).

[2] = test system: GPX4 mRNA; experiment: Real-time qRT-PCR of GPX4 mRNA in HT1080 cells; format: cell-based, human; conditions: HT1080 cells, 0.1, 0.3, 1 and 3 µM, 24 h
Procedure: Real‐time qRT‐PCR was used to determine the mRNA expression level of GPX4 gene in HT1080 cells. In brief, HT1080 cells were seeded in 6‐well plates at a density of 4.5 × 10^5 cells per well and allowed to adhere overnight. Subsequently, the cells were exposed to different concentrations of the test compound GDAz‐3 for 24 h. Total RNA from the various cell samples was extracted using an RNA‐Quick Purification Kit (#RC112, Vazyme, Nanjing, China) according to the manufacturer's instructions. The concentrations of the isolated RNA samples were determined using NanoDrop. A total of 2 µg RNA was used to synthesize cDNA using Fast‐All‐in‐One RT Kit (#RT001, ES Science, Shanghai) following the manufacturer's guidelines. Real‐time PCR was performed using 2xSuper SYBR Green QPCR Master Mix (#QP002, ES Science, Shanghai) and determined using a CFX96 PCR instrument with the following cycling conditions: 95 °C for 5 min, 95 °C for 10 s, and 60 °C for 30 s, 40 cycles. The data were analyzed by Bio‐Rad CFX Manager Software version 3.1. The primers used in this experiment were as follows: […]

[3] = test system: Fe2+; experiment: Intracellular Fe2+ in HT1080 cells; format: cell-based, human; conditions: HT1080 cells, 0.1, 0.5 and 1 µM, 24 h
Procedure: HT1080 cells were seeded into 10‐cm culture dishes at a density of 2 × 10⁶ cells overnight, and various concentrations of GDAz‐3 (0.1, 0.5, and 1 µM) were added. The cells were digested and collected after treatment with drugs for 24 h. The cells were detected according to the instructions of the Cell Ferrous Iron (Fe^2⁺) Fluorometric Assay Kit (E‐BC‐F101, Elabscience Biotechnology Co., Ltd.). In brief, the cells were washed twice with Reagent 1 working solution in the kit, and then Reagent 2 working solution was added (1 mL per 10⁶ cells). The cells were incubated at 37 °C in the dark for 30–60 min. The samples were centrifuged at 300 × g for 5 min, and the supernatant was discarded. The cells were washed two to three times with Reagent 1 working solution. After resuspending the cells in 0.2–0.5 mL of Reagent 1 working solution, the samples were detected using a fluorescence microplate reader (excitation wavelength: 542 nm, emission wavelength: 575 nm).

[4] = Relative drug biodistribution in HT1080 xenograft mice (LC-MS/MS); format: in vivo, nude mice; conditions: 50 mg/kg, 12 h, n = 1
Source text: In addition, the tumor samples from the six treatment groups were randomly collected and probed for the levels of GPX4, and 4‐HNE (4‐hydroxynonenal, a lipid peroxidation marker) by immunohistochemistry (IHC) staining (Figure 7G). […] Collectively, the HSP70‐PROTAC GDAz‐3 has been confirmed as an effective ferroptosis‐inducing agent, which can degrade GPX4 both in vitro and in vivo via UPS and CMA dual processes.
GDAz‐3 was intravenously injected into an HT1080‐bearing xenograft tumor mouse model at 50 mg kg^−1. After 12 h of treatment, samples of tumor tissue and major organs, including the heart, liver, spleen, lung, kidney, and intestine, were collected. After weighing, these samples were processed into homogenates, and 500 µL of cold methanol was added. After thorough mixing, the supernatant was generated by centrifugation (4 °C, 12 000 rpm, 15 min), and then analyzed by liquid chromatography‐tandem mass spectrometry (Agilent 6495C Triple Quadrupole LC/MS). In brief, a volume of 1 µL from each sample was extracted and injected into a Waters Acquity Premmier BEH C18 (2.1 × 50 mm, 1.7 µm) column. The solvent delivery module was used to deliver an HPLC gradient of 20–95% B over 7 min (A: 0.1% formic acid in water, B: acetonitrile) at a flow rate of 0.3 mL min^−1. […] The quantification was performed based on peak area. […]

Which AUC(0-inf) [1] does the source give for COc1ccc(-c2nc(-c3cc(C(F)(F)F)cc(C(F)(F)F)c3)n(Cc3ccc(C(=O)NCCOCCOCCOCCn4cc(COc5ccc(N(C(=O)CCl)C(C(=O)NCCc6ccccc6)c6cccs6)cc5Cl)nn4)cc3)c2-c2ccc(OC)cc2)cc1 (stereo not drawn) [GDAz-3, 4-((2-(3,5-bis(trifluoromethyl)phenyl)-4,5-bis(4-methoxyphenyl)-1H-imidazol-1-yl)methyl)-N-(2-(2-(2-(2-(4-((2-chloro-4-(2-chloro-N-(2-oxo-2-(phenethylamino)-1-(thiophen-2-yl)ethyl)acetamido)phenoxy)methyl)-1H-1,2,3-triazol-1-yl)ethoxy)ethoxy)ethoxy)ethyl)benzamide] here?
Its AUC(0-inf) is 3.14 µg·h/mL.

What about the AUC(0-t) [1] of the same compound?
The AUC(0-t) was 2.45 ± 0.939 µg·h/mL.

What about the Cmax [1] of the same compound?
Its Cmax is 0.201 µg/mL.

What about the MRT inf [1] of the same compound?
Its MRT inf is 15.5 ± 1.31 h.

What about the Tmax [1] of the same compound?
Its Tmax is 4 h.

What about the half-life [1] of the same compound?
Its half-life is 10.2 h.

And the “Level of GPX4 mRNA” value [2]?
Its value is “did not significantly affect”.

And the “Content of Fe2+” value [3]?
Its value is “increased”.

And the “Concentration in tumor tissue relative to other tissues” value [4]?
The value was “significantly higher than that in other tissues”.
